From US20240270762A1, “PENICILLIN-BINDING PROTEIN INHIBITORS” (priority 2021, published 2024)
In brackets after ≈: the same amount, converted by molar mass. Read-outs that look alike come from different tables or passages of the source.

How the values were obtained:
A. baumannii CDC-0045 = test: microbe, parasite or virus in culture; type: cell-based; conditions: Acinetobacter baumannii, CDC0045, read-out: MIC, A. baumannii CDC-0045
N. gonorrhoeae WHO M = test: Liquid broth MIC in Fastidious broth; conditions: Neisseria gonorrhoeae
A. baumannii 1258916 = test: microbe, parasite or virus in culture; type: cell-based, Acinetobacter baumannii; conditions: Acinetobacter baumannii, 1258916, read-out: MIC, A. baumannii 1258916
A. baumannii ATCC 19606 = test: microbe, parasite or virus in culture; type: cell-based; conditions: Acinetobacter baumannii, ATCC19606, read-out: MIC, A. baumannii ATCC 19606
N. gonorrhoeae WHO G = test: Liquid broth MIC in Fastidious broth; conditions: Neisseria gonorrhoeae
P. aeruginosa CDC-0090 = test: microbe, parasite or virus in culture; type: cell-based; conditions: Pseudomonas aeruginosa, CDC0090, read-out: Minimum inhibitory concentration, P. aeruginosa CDC-0090
N. gonorrhoeae CDC-0197 = test: Liquid broth MIC in Fastidious broth; conditions: Neisseria gonorrhoeae
[1] = molecular target: T1, PBP3 from Acinetobacter baumannii (ATCC 19606) (Acinetobacter baumannii, UniProt A0ABX6CK25); test: Bocillin-FL fluorescence polarization competition binding, A. baumannii PBP3; conditions: fluorescence polarization competition binding assay using Bocillin-FL; read-out: A. baumannii PBP3 Potency
T1 sequence (A0ABX6CK25 64-610): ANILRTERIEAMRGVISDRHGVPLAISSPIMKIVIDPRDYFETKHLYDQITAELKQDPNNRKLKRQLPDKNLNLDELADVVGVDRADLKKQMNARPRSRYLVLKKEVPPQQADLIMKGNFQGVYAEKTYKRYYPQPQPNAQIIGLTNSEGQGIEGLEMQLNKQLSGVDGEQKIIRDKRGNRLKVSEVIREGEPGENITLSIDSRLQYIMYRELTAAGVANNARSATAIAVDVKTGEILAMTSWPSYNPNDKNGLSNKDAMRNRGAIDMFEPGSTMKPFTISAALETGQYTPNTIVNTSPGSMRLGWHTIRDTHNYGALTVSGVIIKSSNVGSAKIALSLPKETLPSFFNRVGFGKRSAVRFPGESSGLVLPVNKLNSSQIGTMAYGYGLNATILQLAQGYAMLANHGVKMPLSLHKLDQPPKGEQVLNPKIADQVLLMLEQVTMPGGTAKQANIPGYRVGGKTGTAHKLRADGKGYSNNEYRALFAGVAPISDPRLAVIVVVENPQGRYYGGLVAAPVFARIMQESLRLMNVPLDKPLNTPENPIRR
Outline: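 Purified PBPs pre-incubated with inhibitor (E. coli PBP3 1.5 μM, 30 min; P. aeruginosa PBP3 0.75 μM, A. baumannii PBP1a 1 μM and PBP3 0.2 μM, 15 min), then Bocillin-FL 0.1 μM (0.05 μM for PBP1a) added; FP read up to 60 min. EC50 = concentration halving bound Bocillin-FL.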

[2] = read-out: Minimum Inhibitory Concentration (MIC), N. gonorrhoeae WHO M
[3] = read-out: Minimum Inhibitory Concentration (MIC), N. gonorrhoeae WHO G
[4] = CDC0197, read-out: Minimum Inhibitory Concentration (MIC), N. gonorrhoeae CDC-0197

O=C(CN1CCN(C(=O)NC(C(=O)N[C@H]2Cc3ccc(F)c(C(=O)O)c3OB2O)c2cc(F)c(O)c(O)c2Cl)C(=O)C1=O)Nc1cccnc1 (stereo partly drawn) [Example 234, (3R)-3-(2-(2-chloro-5-fluoro-3,4-dihydroxyphenyl)-2-(2,3-dioxo-4-(2-oxo-2-(pyridin-3-ylamino)ethyl)piperazine-1-carboxamido)acetamido)-7-fluoro-2-hydroxy-3,4-dihydro-2H-benzo[e][1,2]oxaborinine-8-carboxylic acid]
MIC (A. baumannii CDC-0045): < 1 µg/mL | MIC (N. gonorrhoeae WHO M; [2]): 4 to 8 µg/mL (≈ 5.58 to 11.2 µM) | MIC (A. baumannii 1258916): < 1 µg/mL | MIC (A. baumannii ATCC 19606): < 1 µg/mL | MIC (N. gonorrhoeae WHO G; [3]): 4 to 8 µg/mL (≈ 5.58 to 11.2 µM) | MIC (P. aeruginosa CDC-0090): 2 to 4 µg/mL (≈ 2.79 to 5.58 µM) | MIC (N. gonorrhoeae CDC-0197; [4]): 16 to 32 µg/mL (≈ 22.3 to 44.6 µM) | IC50 [1]: < 10 µM

O=C(NCCCN1CCN(C(=O)NC(C(=O)N[C@H]2Cc3ccc(F)c(C(=O)O)c3OB2O)c2cc(F)c(O)c(O)c2Cl)C(=O)C1=O)c1ccncc1 (stereo partly drawn) [Example 205, (3R)-3-(2-(2-chloro-5-fluoro-3,4-dihydroxyphenyl)-2-(4-(3-(isonicotinamido)propyl)-2,3-dioxopiperazine-1-carboxamido)acetamido)-7-fluoro-2-hydroxy-3,4-dihydro-2H-benzo[e][1,2]oxaborinine-8-carboxylic acid]
MIC (A. baumannii CDC-0045): < 1 µg/mL | MIC (N. gonorrhoeae WHO M; [2]): 4 to 8 µg/mL (≈ 5.37 to 10.7 µM) | MIC (A. baumannii 1258916): < 1 µg/mL | MIC (A. baumannii ATCC 19606): < 1 µg/mL | MIC (N. gonorrhoeae WHO G; [3]): 4 to 8 µg/mL (≈ 5.37 to 10.7 µM) | MIC (P. aeruginosa CDC-0090): < 1 µg/mL | MIC (N. gonorrhoeae CDC-0197; [4]): 16 to 32 µg/mL (≈ 21.5 to 43 µM) | IC50 [1]: < 10 µM

O=C(NCCCN1CCN(C(=O)NC(C(=O)N[C@H]2Cc3ccc(F)c(C(=O)O)c3OB2O)c2cc(F)c(O)c(O)c2Cl)C(=O)C1=O)c1nccs1 (stereo partly drawn) [Example 211, (3R)-3-(2-(2-chloro-5-fluoro-3,4-dihydroxyphenyl)-2-(2,3-dioxo-4-(3-(thiazole-2-carboxamido)propyl)piperazine-1-carboxamido)acetamido)-7-fluoro-2-hydroxy-3,4-dihydro-2H-benzo[e][1,2]oxaborinine-8-carboxylic acid]
MIC (A. baumannii CDC-0045): < 1 µg/mL | MIC (N. gonorrhoeae WHO M; [2]): 16 to 32 µg/mL (≈ 21.3 to 42.6 µM) | MIC (A. baumannii 1258916): < 1 µg/mL | MIC (A. baumannii ATCC 19606): < 1 µg/mL | MIC (N. gonorrhoeae WHO G; [3]): 16 to 32 µg/mL (≈ 21.3 to 42.6 µM) | MIC (P. aeruginosa CDC-0090): < 1 µg/mL | MIC (N. gonorrhoeae CDC-0197; [4]): 16 to 32 µg/mL (≈ 21.3 to 42.6 µM) | IC50 [1]: < 10 µM

O=C(NCCCS(=O)(=O)N1CCN(C(=O)NC(C(=O)N[C@H]2Cc3ccc(F)c(C(=O)O)c3OB2O)c2cc(F)c(O)c(O)c2Cl)C1=O)c1ccc(O)cc1 (stereo partly drawn) [Example 269, (3R)-3-(2-(2-chloro-5-fluoro-3,4-dihydroxyphenyl)-2-(3-((3-(4-hydroxybenzamido)propyl)sulfonyl)-2-oxoimidazolidine-1-carboxamido)acetamido)-7-fluoro-2-hydroxy-3,4-dihydro-2H-benzo[e][1,2]oxaborinine-8-carboxylic acid]
MIC (A. baumannii CDC-0045): < 1 µg/mL | MIC (N. gonorrhoeae WHO M; read-out: Minimum Inhibitory Concentration, WHO M): 4 to 8 µg/mL (≈ 5.03 to 10.1 µM) | MIC (A. baumannii 1258916): 2 to 4 µg/mL (≈ 2.51 to 5.03 µM) | MIC (A. baumannii ATCC 19606): < 1 µg/mL | MIC (N. gonorrhoeae WHO G; read-out: Minimum Inhibitory Concentration, WHO G): 16 to 32 µg/mL (≈ 20.1 to 40.2 µM) | MIC (P. aeruginosa CDC-0090): 2 to 4 µg/mL (≈ 2.51 to 5.03 µM) | MIC (N. gonorrhoeae CDC-0197; CDC0197, read-out: Minimum Inhibitory Concentration, CDC-0197): 16 to 32 µg/mL (≈ 20.1 to 40.2 µM) | IC50 [1]: < 10 µM

O=C(NCCN1CCN(C(=O)NC(C(=O)N[C@H]2Cc3ccc(F)c(C(=O)O)c3OB2O)c2cc(F)c(O)c(O)c2Cl)C1=O)c1ccccc1 (stereo partly drawn) [Example 242, (3R)-3-(2-(3-(2-benzamidoethyl)-2-oxoimidazolidine-1-carboxamido)-2-(2-chloro-5-fluoro-3,4-dihydroxyphenyl)acetamido)-7-fluoro-2-hydroxy-3,4-dihydro-2H-benzo[e][1,2]oxaborinine-8-carboxylic acid]
MIC (A. baumannii CDC-0045): < 1 µg/mL | MIC (N. gonorrhoeae WHO M; [2]): 16 to 32 µg/mL (≈ 22.8 to 45.6 µM) | MIC (A. baumannii 1258916): < 1 µg/mL | MIC (A. baumannii ATCC 19606): < 1 µg/mL | MIC (N. gonorrhoeae WHO G; [3]): 16 to 32 µg/mL (≈ 22.8 to 45.6 µM) | MIC (P. aeruginosa CDC-0090): < 1 µg/mL | MIC (N. gonorrhoeae CDC-0197; [4]): > 64 µg/mL | IC50 [1]: < 10 µM
